The text below walks through data of patent publication US20140148464A1, “SALT FORMS OF FATTY ACIDS FOR THE TREATMENT OF DRY EYE” (Thetis Pharmaceuticals LLC, priority 2012, published 2014).

The nature of this series: Rat oral pharmacokinetics (plasma eicosapentaenoic acid after oral gavage). In kind it is in vivo. To be noted: Sprague-Dawley rats, oral gavage 40 mg/kg in 0.5% carboxymethyl cellulose, analyte EPA in plasma, mean of 6 rats. The procedure: Oral pharmacokinetic parameters of piperazine di-eicosapentaenoate, prepared by the procedure described in Example 2, were determined in Sprague-Dawley rats. Piperazine di-eicosapentaenoate was administered by oral gavage as an aqueous solution in 0.5% carboxymethyl cellulose to 6 Sprague-Dawley rats, 3 males and 3 females. Rats were dosed at 40 mg/kg. Blood samples were obtained from each rat by jugular vein catheter. […] Blood samples were centrifuged to separate red blood cells and the resulting plasma samples were analyzed for eicosapentaenoic acid. Calculated pharmacokinetic parameters shown below in Table 1 are mean values from 6 rats. […] Rats were dosed at 40 mg/kg. Blood samples were obtained from each rat by jugular vein catheter. […] Blood samples were centrifuged to separate red blood cells and the resulting plasma samples were analyzed for eicosapentaenoic acid. Calculated pharmacokinetic parameters shown below (Table 2) are mean values from 6 rats.

Counter-ions that a name gives are not always drawn. Like-named read-outs stand apart in the source and are kept apart here.

On to `CC/C=C\C/C=C\C/C=C\C/C=C\C/C=C\CCCC(=O)O.CC/C=C\C/C=C\C/C=C\C/C=C\C/C=C\CCCC(=O)O.NCCN` [Ethylene diamine di-eicosapentaenoate, Ethane-1,2-diaminium di[(5Z,8Z,11Z,14Z,17Z)-icosa-5,8,11,14,17-pentaenoate]], for which the Cmax was 18370 ng/mL and the Tmax is listed as 2.0 h. The “AUC (0-24)” value (0-24 h) came to 275.29 µg·h/mL.

For the setting “both sexes, rat, 0-24 h”, `CC/C=C\C/C=C\C/C=C\C/C=C\C/C=C\CCCC(=O)O` [Piperazine di-eicosapentaenoate, Bis[(5Z,8Z,11Z,14Z,17Z)-icosa-5,8,11,14,17-pentaenoatel Piperazine Salt] returned an AUC(0-t) of 135 µg·h/mL. Also, where the note is “both sexes, rat, read-out: Cmax”, the Cmax amounted to 28200 ng/mL. Moreover, the Tmax (both sexes, rat, read-out: Tmax) worked out at 1 h.
